For series [1], the system named is Peritoneal macrophage. As to the kind of experiment: Cytotoxicity against Swiss Webster mouse peritoneal macrophages at 100 uM after 72 hrs by resazurin reduction assay. The class given is cell-based. Background: Alamar Blue is a resazurin reagent that responds to reducing activity.
Series [2] addresses T1, P2X purinoceptor 7 (Mus musculus) (UniProt Q9Z1M0).
T1 sequence (whole entry): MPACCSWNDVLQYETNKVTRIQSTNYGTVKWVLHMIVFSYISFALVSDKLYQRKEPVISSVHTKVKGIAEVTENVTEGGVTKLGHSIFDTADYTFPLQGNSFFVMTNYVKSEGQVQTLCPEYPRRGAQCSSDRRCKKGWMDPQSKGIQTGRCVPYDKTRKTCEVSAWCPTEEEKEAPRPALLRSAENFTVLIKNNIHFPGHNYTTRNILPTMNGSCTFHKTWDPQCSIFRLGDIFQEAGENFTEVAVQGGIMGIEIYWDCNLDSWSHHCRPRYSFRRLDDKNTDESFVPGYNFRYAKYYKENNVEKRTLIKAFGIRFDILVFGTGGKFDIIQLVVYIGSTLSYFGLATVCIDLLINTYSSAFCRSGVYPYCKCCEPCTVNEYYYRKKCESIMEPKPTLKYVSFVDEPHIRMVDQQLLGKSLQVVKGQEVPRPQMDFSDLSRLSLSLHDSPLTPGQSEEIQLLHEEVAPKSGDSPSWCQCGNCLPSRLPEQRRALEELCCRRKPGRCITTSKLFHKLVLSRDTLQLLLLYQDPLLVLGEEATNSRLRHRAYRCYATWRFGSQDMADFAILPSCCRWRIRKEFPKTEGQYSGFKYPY
Put plainly: (§1) Antagonist activity at P2X7R in Swiss Webster mouse peritoneal macrophages assessed as inhibition of ATP-induced propidium iodide uptake preincubated for 10 mins followed by ATP induction measured after 25 mins by fluorescence assay.

Series [3] addresses T2, P2X purinoceptor 7 (Mus musculus, UniProt Q9Z1M0).
T2 sequence (Q9Z1M0 whole entry): T1 sequence (whole entry)
The description is as §1.

A short description of series [4]: Cytotoxicity against Swiss Webster mouse peritoneal macrophages by LDH release assay. The class given is cell-based, Peritoneal macrophage. Background: LDH leaks from cells whose membrane has failed.
In another series the test system is P2X7R. Put plainly: Selectivity index, ratio of CC50 for Swiss Webster mouse peritoneal macrophages to IC50 for antagonist activity at P2X7R in Swiss Webster mouse peritoneal macrophages. The class given is toxicity. To be noted: read-out: Ratio CC50/IC50.
The next series concerns THP-1. As to the kind of experiment: Antiinflammatory activity in LPS/IFNgamma-differentiated human THP1 cells assessed as inhibition of ATP-induced IL-1beta release after 30 mins by ELISA. The class given is functional, cell-based. To be noted: THP-1, 0.5 h. Background: ELISA stands for enzyme-linked immunosorbent assay.
Series [5] concerns Peritoneal macrophage. Put plainly: Antiinflammatory activity in LPS/IFNgamma-differentiated Swiss Webster mouse peritoneal macrophages assessed as inhibition of ATP-induced IL-1beta release preincubated for 15 mins followed by ATP/LPS challenge measured after 30 mins by sandwich ELISA. The class given is functional, cell-based.
Series [6] concerns the target T3, P2X purinoceptor 7 (Homo sapiens, UniProt Q99572).
T3 sequence (Q99572 whole entry): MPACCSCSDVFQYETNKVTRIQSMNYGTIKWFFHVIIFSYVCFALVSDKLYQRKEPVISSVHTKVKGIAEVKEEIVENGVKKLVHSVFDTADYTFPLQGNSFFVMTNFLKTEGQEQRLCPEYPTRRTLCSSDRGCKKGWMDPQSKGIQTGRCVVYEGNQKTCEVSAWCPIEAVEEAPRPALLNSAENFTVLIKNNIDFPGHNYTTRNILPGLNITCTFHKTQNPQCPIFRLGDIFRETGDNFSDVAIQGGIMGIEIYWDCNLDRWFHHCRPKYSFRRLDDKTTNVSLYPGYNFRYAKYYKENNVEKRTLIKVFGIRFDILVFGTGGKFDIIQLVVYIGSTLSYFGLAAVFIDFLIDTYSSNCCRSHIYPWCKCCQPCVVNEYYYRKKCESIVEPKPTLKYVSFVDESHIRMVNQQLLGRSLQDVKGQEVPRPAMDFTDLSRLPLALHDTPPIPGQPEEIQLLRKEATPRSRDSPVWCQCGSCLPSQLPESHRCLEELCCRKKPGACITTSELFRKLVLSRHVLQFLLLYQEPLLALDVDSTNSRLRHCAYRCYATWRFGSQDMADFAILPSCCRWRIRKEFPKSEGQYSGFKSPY
Put plainly: Antagonist activity at human P2X7R expressed in HEK293 cells assessed as inhibition of ATP-induced […] uptake preincubated for 10 mins followed by ATP induction measured after 25 mins by fluorescence assay. The class given is cell-based.

Series [7] can be described thus: Safety index, ratio of test compound CC50 to BGG CC50 for Swiss Webster mouse peritoneal macrophages by LDH release assay. The class given is ADME, cell-based, Peritoneal macrophage.
A short description of series [8]: Safety index, ratio of test compound CC50 to A740003 CC50 for Swiss Webster mouse peritoneal macrophages by LDH release assay. The class given is ADME, cell-based, Peritoneal macrophage.
Series [9] is described as follows: Intrinsic clearance in mouse liver microsomes assessed per mg of protein at 1 uM preincubated for 45 mins followed by NADPH addition. The class given is ADME, microsome. Conditions: read-out: CLH.
Series [10] in a line: Intrinsic clearance in human liver microsomes assessed per mg of protein at 1 uM preincubated for 45 mins followed by NADPH addition. To be noted: read-out: CLH. The class given is ADME, microsome.
Series [11] in a line: Apparent permeability across apical to basolateral side in human Caco2 cells at 100 uM after 60 mins by lucifer yellow fluorescence-based assay. The class given is ADME, cell-based. To be noted: Caco-2.
A short description of series [12]: Kinetic solubility in pH 2 hydrochloride buffer. The class given is physicochemical. Conditions: read-out: Kinetic_solubility.
Series [13] is described as follows: Kinetic solubility in pH 4 citrate buffer. To be noted: read-out: Kinetic_solubility. The class given is physicochemical.
Series [14] can be described thus: Kinetic solubility in pH 7.4 phosphate buffer. The class given is physicochemical. Conditions: read-out: Kinetic_solubility.
Series [15] can be described thus: Kinetic solubility in pH 10 sodium hydroxide buffer. Conditions: read-out: Kinetic_solubility. The class given is physicochemical.
A short description of series [16]: Octanol-PBS distribution co-efficient, log D of the compound at 25 mM at pH 7.4 after 2 hrs by shake flask method. The class given is physicochemical.
Series [17] addresses T1, P2X purinoceptor 7 (Mus musculus). As to the kind of experiment: Antagonist activity at P2X7R in Swiss Webster mouse peritoneal macrophages assessed as inhibition of ionic current amplitude at 500 nM incubated for 300 secs in presence of ATP by patch clamp method.
Series [18] is described as follows: Apparent permeability across apical to basolateral side in human Caco2 cells at 100 uM after 60 mins by lucifer yellow fluorescence-based assay relative to propranolol. The class given is ADME, cell-based. To be noted: caco-2, 1 h.
The test system of series [19] is Mus musculus. As to the kind of experiment: Antiinflammatory activity in ip dosed Swiss Webster mouse assessed as inhibition of carrageenan-induced paw edema preincubated for 30 mins followed by carrageenan challenge measured after 60 mins by plethysmometer. The class given is functional, organism-based.
The test system of series [20] is Peritoneal macrophage. As to the kind of experiment: Antiinflammatory activity in IFNgamma-differentiated Swiss Webster mouse peritoneal macrophages assessed as inhibition of LPS-induced IL-1beta release at 500 nM preincubated for 15 mins followed by LPS challenge measured after 30 mins by sandwich ELISA. The class given is functional, cell-based.
Series [21] deals with Mus musculus. Put plainly: Antiinflammatory activity in Swiss Webster mouse assessed as inhibition of carrageenan-induced paw edema at 10 mg/kg, ip preincubated for 30 mins followed by carrageenan challenge measured after 60 mins by plethysmometer. The class given is functional, organism-based.

Converted amounts (≈) assume the structure as drawn. The source made the active and inactive calls. The calls are words filed in the database; no cut-off is given here.

As a reminder, the IC50 is the concentration that inhibits the measured activity by half. A word on the CC50: it is the concentration at which the toxic effect on the cells reaches its halfway point. A lower CC50 goes with greater toxicity to the cells. One may read the Papp A→B as the apparent permeability from the apical to the basolateral side of a cell layer. As usually defined, the logD is the decadic logarithm of the distribution of all forms, ionised or not, between an organic phase and buffer at a given pH. The low end stands for a more hydrophilic compound, the high end for a more lipophilic compound.

`O=C1C(O)=C(I)C(=O)c2ccccc21`: the Activity result in the series on Peritoneal macrophage [1] is “Non-Toxic”. In addition, the inhibition result (in [2]; with Mus musculus [19]) was “Dose-dependent effect” in each case. In addition, the IC50 on P2X purinoceptor 7 [3] came to 0.0484 µM; with THP-1, 0.0402 µM; in the series on Peritoneal macrophage [5], 0.0489 µM; at P2X purinoceptor 7 [6], 0.0712 µM. Moreover, in series [4], half-maximal cytotoxicity (CC50) was put at 2020 µM. Moreover, the selectivity ratio in the series with P2X7R was 50600; in series [7], 10 to 20; in series [8] it was 3 to 6. Also, the figures for the microsomal CLint at 1 µM in series [9] and in series [10] were 24.6 µL/min/mg and 31.1 µL/min/mg, respectively. Moreover, the Papp A→B at 1 h, 100 µM in series [11] turned out to be 542 nm/s. In addition, the solubility kinetic was 300 µM (≈ 90 µg/mL) in series [12], 300 µM (≈ 90 µg/mL) in series [13], under 300 µM in [14] and 300 µM (≈ 90 µg/mL) in series [15]. The logD at 2 h, 25000 µM in series [16] is -0.11. The inhibition result in [17] was “Active”. Besides, the Papp result in series [18] is reported as “<= 50%”. Besides, the inhibition entry with Peritoneal macrophage [20] was “inactive”.
Turning to `Cc1ccc(C2=C(O)C(=O)c3ccccc3C2=O)cc1`, the Activity result in the series with Peritoneal macrophage [1] is recorded as “Non-Toxic”. Also, the IC50 on P2X purinoceptor 7 [3] came to 81.3 µM.
Take `CCOc1ccc(Nc2ccc(/C(=C3C=C/C(=[N+](/CC)Cc4cccc(S(=O)(=O)[O-])c4)C=C/3C)c3ccc(N(CC)Cc4cccc(S(=O)(=O)O)c4)cc3C)cc2)cc1` [BRILLIANT BLUE G]: the IC50 was determined as 15.2 µM at P2X purinoceptor 7 [3], 19.3 µM in the series with THP-1, 19.8 µM in the series with Peritoneal macrophage [5] and 0.536 µM at P2X purinoceptor 7 [6]. Moreover, the 50% cytotoxic concentration (CC50) in series [4] came to 87.3 µM. Moreover, the selectivity ratio in the series with P2X7R was 5.73.
For the molecule `O=C1C(O)=C(c2ccccc2)C(=O)c2ccccc21`, the Activity result with Peritoneal macrophage [1] is given as “Non-Toxic”. In addition, the inhibition entry (in series [2]; in the series with Mus musculus [19]) was “Dose-dependent effect” throughout. Also, the IC50 at P2X purinoceptor 7 [3] is 0.0231 µM; in the series on THP-1, 0.0098 µM; in the series with Peritoneal macrophage [5], 0.0112 µM; at P2X purinoceptor 7 [6], 0.0224 µM. The midpoint of cytotoxicity in series [4], the CC50, lay at 1990 µM. The values for the selectivity ratio (with P2X7R; in [7]; in series [8]) were 86400, 10 to 20 and 3 to 6, respectively. For the same molecule, the microsomal CLint at 1 µM came to 27.7 µL/min/mg in series [9] and 36.8 µL/min/mg in [10]. In [11], the Papp A→B at 1 h, 100 µM is 611 nm/s. The solubility kinetic in [12], in [13], in [14] and in series [15] was under 500 µM each time. In [16], this molecule gave a logD at 2 h, 25000 µM of -0.39. The inhibition entry in series [17] was “Active”. Also, in series [18], the Papp turned out to be 60%. Besides, the inhibition entry in the series on Peritoneal macrophage [20] is “inactive”.
For the molecule `O=C1C(O)=C(c2cccc(F)c2)C(=O)c2ccccc21`, the Activity entry with Peritoneal macrophage [1] was “Non-Toxic”. In addition, the IC50 on P2X purinoceptor 7 [3] was found to be 33.5 µM.
In the case of `O=C1C(O)=C(Br)C(=O)c2ccccc21`, the Activity result in the series with Peritoneal macrophage [1] is on record as “Non-Toxic”. In series [2], the inhibition entry was “Dose-dependent effect”. Also, the IC50 on P2X purinoceptor 7 [3] was found to be 0.712 µM; in the series on THP-1 it was 0.633 µM; in the series with Peritoneal macrophage [5] it was 0.677 µM; on P2X purinoceptor 7 [6], 0.414 µM. Moreover, in series [4], the CC50 was 844 µM. Also, the selectivity ratio in the series on P2X7R is 1180; in series [7], 10 to 20; in series [8] it was 3 to 6. The inhibition entry with Peritoneal macrophage [20] was “inactive”.
With `COc1ccc(C2=C(O)C(=O)c3ccccc3C2=O)cc1`, in the series with Peritoneal macrophage [1], the Activity entry is on record as “Non-Toxic”. In addition, the 50% inhibitory concentration (IC50) on P2X purinoceptor 7 [3] turned out to be 80.1 µM.
As to `COc1ccc(CC(=O)NC(N/C(=N/C#N)Nc2cccc3ncccc23)C(C)(C)C)cc1OC` (stereo unspecified), the IC50 at P2X purinoceptor 7 [3] was 0.897 µM; in the series on THP-1, 0.689 µM; with Peritoneal macrophage [5], 0.723 µM; at P2X purinoceptor 7 [6], 0.109 µM. Moreover, in series [4], the CC50 was 325 µM. Further, the selectivity ratio in the series on P2X7R was found to be 362. Further, in [17], the inhibition entry is “Active”.
Turning to `O=C(O)Cc1ccccc1Nc1c(Cl)cccc1Cl`, the inhibition entry in the series on Mus musculus [21] was “Active”.
On to `N#Cc1ccc(C2=C(O)C(=O)c3ccccc3C2=O)cc1`, for which the Activity result with Peritoneal macrophage [1] is on record as “Non-Toxic”. Also, the IC50 at P2X purinoceptor 7 [3] was 45.8 µM.
In the case of `O=C1C=C(O)C(=O)c2ccccc21` [LAWSONE], the Activity result in the series on Peritoneal macrophage [1] is recorded as “Toxic”. In addition, the IC50 at P2X purinoceptor 7 [3] was 75.5 µM.
On the same counts, the results for `COc1cccc(C2=C(O)C(=O)c3ccccc3C2=O)c1` are “Non-Toxic” and 3.17 µM.

The values above are taken from ChEMBL document CHEMBL4251561, “1,4-Naphthoquinones potently inhibiting P2X7 receptor activity” (Eur J Med Chem, 2018).
